Source: ChEMBL document CHEMBL1201862, “PubChem BioAssay data set” (2004)
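Each compound was tested at five concentrations against cells in 96-well plates for 48 hours. The concentration for 50% growth inhibition is given as GI50.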 Calls of active or inactive are those of the source. No stated cut-off is given here; in the data, active = GI50 up to about 1.1 µM and inactive = higher.

How the values were obtained:
Assay in all cases: NCI-60 cell line screen, 48 h
DMS-273 = system: DMS-273
NCI-H460 = system: NCI-H460
SK-OV-3 = system: SK-OV-3
NCI-H522 = system: NCI-H522
MOLT-4 = system: MOLT-4
A498 = system: A498
DLD-1 = system: DLD-1
IGROV-1 = system: IGROV-1
HOP-92 = system: HOP-92
UACC-257 = system: UACC-257
SK-MEL-5 = system: SK-MEL-5
HOP-62 = system: HOP-62
EKVX = system: EKVX
SR = system: SR
SF-295 = system: SF-295
CAKI-1 = system: CAKI-1
ACHN = system: ACHN
HOP-18 = system: HOP-18
UO-31 = system: UO-31
RPMI-8226 = system: RPMI-8226
SNB-19 = system: SNB-19
A549 = system: A549
HCT-15 = system: HCT-15
MDA-MB-231 = system: MDA-MB-231
NCI/ADR-RES = system: NCI/ADR-RES
U-251 = system: U-251
M19-MEL = system: M19-MEL
SF-539 = system: SF-539
HT-29 = system: HT-29
SF-268 = system: SF-268
SNB-75 = system: SNB-75
OVCAR-3 = system: OVCAR-3
786-0 = system: 786-0
NCI-H23 = system: NCI-H23
MDA-N = system: MDA-N
DMS-114 = system: DMS-114
PC-3 = system: PC-3
BT-549 = system: BT-549
LOX IMVI = system: LOX IMVI
NCI-H226 = system: NCI-H226
SK-MEL-2 = system: SK-MEL-2
RXF 393 = system: RXF 393
HL-60 = system: HL-60
COLO 205 = system: COLO 205
HCC 2998 = system: HCC 2998
OVCAR-4 = system: OVCAR-4
SK-MEL-28 = system: SK-MEL-28
XF498 = system: XF498
M14 = system: M14
CCRF-CEM = system: CCRF-CEM
T47D = system: T47D
Malme-3M = system: Malme-3M
OVCAR-5 = system: OVCAR-5
UACC-62 = system: UACC-62
SW-620 = system: SW-620
K562 = system: K562
KM12 = system: KM12
HCT-116 = system: HCT-116
SN12C = system: SN12C
KM-20L2 = system: KM-20L2
MDA-MB-435 = system: MDA-MB-435
SNB-78 = system: SNB-78
MCF7 = system: MCF7
DU-145 = system: DU-145
Hs-578T = system: Hs-578T
OVCAR-8 = system: OVCAR-8
TK-10 = system: TK-10
RXF 631 = system: RXF 631
LXFL 529 = system: LXFL 529

Cc1cn(C2CC(O)C(CO)O2)c(=O)[nH]c1=O (stereo unspecified)
GI50 (DMS-273): 3780 µM (inactive) | GI50 (NCI-H460): 655 µM (inactive) | GI50 (SK-OV-3): 2480 µM (inactive) | GI50 (NCI-H522): 1690 µM (inactive) | GI50 (MOLT-4): 386 µM (inactive) | GI50 (A498): > 4670 µM (inactive) | GI50 (DLD-1): 2700 µM (inactive) | GI50 (IGROV-1): > 4900 µM (inactive) | GI50 (HOP-92): 3020 µM (inactive) | GI50 (UACC-257): 3760 µM (inactive) | GI50 (SK-MEL-5): 4450 µM (inactive) | GI50 (HOP-62): 1380 µM (inactive) | GI50 (EKVX): 2380 µM (inactive) | GI50 (SR): > 2020 µM (inactive) | GI50 (SF-295): 2290 µM (inactive) | GI50 (CAKI-1): 1420 µM (inactive) | GI50 (ACHN): 1840 µM (inactive) | GI50 (HOP-18): 4610 µM (inactive) | GI50 (UO-31): 3670 µM (inactive) | GI50 (RPMI-8226): 2050 µM (inactive) | GI50 (SNB-19): 1730 µM (inactive) | GI50 (A549): 689 µM (inactive) | GI50 (HCT-15): 3370 µM | GI50 (MDA-MB-231): > 3520 µM (inactive) | GI50 (NCI/ADR-RES): 2260 µM (inactive) | GI50 (U-251): 1530 µM (inactive) | GI50 (M19-MEL): 1070 µM (inactive) | GI50 (SF-539): 3670 µM (inactive) | GI50 (HT-29): 4430 µM (inactive) | GI50 (SF-268): 2280 µM (inactive) | GI50 (SNB-75): 3630 µM (inactive) | GI50 (OVCAR-3): 1490 µM (inactive) | GI50 (786-0): 1160 µM (inactive) | GI50 (NCI-H23): 1020 µM (inactive) | GI50 (MDA-N): 3780 µM (inactive) | GI50 (DMS-114): 728 µM (inactive) | GI50 (PC-3): > 5000 µM (inactive) | GI50 (BT-549): > 5000 µM (inactive) | GI50 (LOX IMVI): 1310 µM (inactive) | GI50 (NCI-H226): 3780 µM (inactive) | GI50 (SK-MEL-2): 3880 µM (inactive) | GI50 (RXF 393): 2510 µM (inactive) | GI50 (HL-60): > 4760 µM (inactive) | GI50 (COLO 205): 3090 µM (inactive) | GI50 (HCC 2998): 3680 µM (inactive) | GI50 (OVCAR-4): > 3890 µM (inactive) | GI50 (SK-MEL-28): 1360 µM (inactive) | GI50 (XF498): 263 µM (inactive) | GI50 (M14): 1850 µM (inactive) | GI50 (CCRF-CEM): 54.7 µM (inactive) | GI50 (T47D): > 4080 µM (inactive) | GI50 (Malme-3M): 2410 µM (inactive) | GI50 (OVCAR-5): 4060 µM (inactive) | GI50 (UACC-62): 843 µM (inactive) | GI50 (SW-620): 2130 µM (inactive) | GI50 (K562): 1540 µM (inactive) | GI50 (KM12): > 4930 µM (inactive) | GI50 (HCT-116): 1930 µM (inactive) | GI50 (SN12C): 1220 µM (inactive) | GI50 (KM-20L2): 3360 µM (inactive) | GI50 (MDA-MB-435): 4940 µM (inactive) | GI50 (SNB-78): 3180 µM (inactive) | GI50 (MCF7): 325 µM (inactive) | GI50 (DU-145): > 4450 µM (inactive) | GI50 (Hs-578T): 3900 µM (inactive) | GI50 (OVCAR-8): 1590 µM (inactive) | GI50 (TK-10): > 5000 µM (inactive)

COc1ccc(OC)c(/C=C/C(=O)C(C)(C)C)c1
GI50 (DMS-273): 21.1 µM (inactive) | GI50 (NCI-H460): 34.8 µM (inactive) | GI50 (SK-OV-3): 37.2 µM (inactive) | GI50 (NCI-H522): 13.8 µM (inactive) | GI50 (MOLT-4): 13.6 µM (inactive) | GI50 (A498): 28.1 µM (inactive) | GI50 (DLD-1): 19.9 µM (inactive) | GI50 (IGROV-1): 18.2 µM (inactive) | GI50 (HOP-92): 18.7 µM (inactive) | GI50 (SK-MEL-5): 15 µM (inactive) | GI50 (HOP-62): 23.3 µM (inactive) | GI50 (EKVX): 16.4 µM (inactive) | GI50 (SF-295): 25 µM (inactive) | GI50 (CAKI-1): 20.6 µM (inactive) | GI50 (ACHN): 19.9 µM (inactive) | GI50 (HOP-18): 21.3 µM (inactive) | GI50 (RPMI-8226): 13.3 µM (inactive) | GI50 (SNB-19): 17.2 µM (inactive) | GI50 (A549): 29.4 µM (inactive) | GI50 (HCT-15): 20.1 µM | GI50 (U-251): 20 µM (inactive) | GI50 (RXF 631): 32.8 µM (inactive) | GI50 (M19-MEL): 16.3 µM (inactive) | GI50 (SF-539): 19.8 µM (inactive) | GI50 (HT-29): 27.4 µM (inactive) | GI50 (SF-268): > 10 µM (inactive) | GI50 (SNB-75): 26 µM (inactive) | GI50 (OVCAR-3): 23.3 µM (inactive) | GI50 (786-0): 19.5 µM (inactive) | GI50 (NCI-H23): 19.6 µM (inactive) | GI50 (DMS-114): 15.2 µM (inactive) | GI50 (LOX IMVI): 21.1 µM (inactive) | GI50 (NCI-H226): 17.4 µM (inactive) | GI50 (SK-MEL-2): > 10 µM (inactive) | GI50 (RXF 393): 18.5 µM (inactive) | GI50 (HL-60): 14.7 µM (inactive) | GI50 (COLO 205): 19 µM (inactive) | GI50 (HCC 2998): 23.2 µM (inactive) | GI50 (OVCAR-4): 22.6 µM (inactive) | GI50 (SK-MEL-28): 17.2 µM (inactive) | GI50 (M14): 15.7 µM (inactive) | GI50 (CCRF-CEM): 14.3 µM (inactive) | GI50 (Malme-3M): 17.9 µM (inactive) | GI50 (OVCAR-5): > 10 µM (inactive) | GI50 (UACC-62): 9.55 µM (inactive) | GI50 (SW-620): 14.5 µM (inactive) | GI50 (K562): 20.8 µM (inactive) | GI50 (KM12): 21.1 µM (inactive) | GI50 (HCT-116): 17.9 µM (inactive) | GI50 (SN12C): 21 µM (inactive) | GI50 (KM-20L2): 23.6 µM (inactive) | GI50 (LXFL 529): 19.2 µM (inactive) | GI50 (OVCAR-8): 15.7 µM (inactive) | GI50 (TK-10): 26.4 µM (inactive)
